For nine molecules, TGI results are on record in PubChem BioAssay (NCI).

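A five-concentration, 48-hour dose response in 96-well plates underlies each endpoint, interpolated linearly between surrounding concentrations. At the TGI there is no net growth.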

Some test systems named below: SR leukemia; HL-60(TB) leukemia; HCT-15 colon; OVCAR-5 ovarian; SNB-19 CNS; MDA-MB-231 breast; RPMI-8226 leukemia; RXF 393 renal; SF-539 CNS; COLO 205 colon; UACC-257 melanoma; MCF7 breast; SK-OV-3 ovarian; LOX IMVI melanoma; TK-10 renal; UO-31 renal.
Holding throughout (assay): inhibition of tumour cell growth, NCI panel, 48 h

Take `CCCCCCc1cc2cc(C(=O)NCc3ccccc3)c(=N)oc2cc1O`: the TGI with SR leukemia, in the test with HL-60(TB) leukemia, in the test on HCT-15 colon, with OVCAR-5 ovarian, in the test with SNB-19 CNS and in the test with MDA-MB-231 breast was greater than 100 µM throughout. Moreover, the TGI in the test on RPMI-8226 leukemia, in the test on RXF 393 renal, with SF-539 CNS, with COLO 205 colon, in the test on UACC-257 melanoma and in the test on MCF7 breast was greater than 100 µM in each case. Further, the TGI in the test with SK-OV-3 ovarian and in the test with LOX IMVI melanoma was greater than 100 µM each time.

`O=C1C=CC(=O)c2c(O)c(NCCO)c(Cl)c(O)c21`: the TGI in the test on SR leukemia was greater than 6.94 µM; with HL-60(TB) leukemia it was 5.95 µM; with TK-10 renal it was greater than 10 µM; in the test with HCT-15 colon, 6.47 µM; with OVCAR-5 ovarian it was greater than 5.87 µM; in the test with SNB-19 CNS, greater than 10 µM. Further, the TGI was 6.37 µM in the test with MDA-MB-231 breast; greater than 10 µM in the test on RPMI-8226 leukemia; greater than 10 µM in the test with UO-31 renal; 3.46 µM in the test with RXF 393 renal; 5.73 µM with SF-539 CNS; 3.4 µM with COLO 205 colon. Also, the TGI in the test with UACC-257 melanoma is 2.78 µM; in the test on MCF7 breast, 3.94 µM; in the test with SK-OV-3 ovarian it was greater than 10 µM; in the test with LOX IMVI melanoma, 3 µM.

As for `O=C(CCc1ccc(O)c(O)c1)NCCc1ccccc1`, the TGI is 47.5 µM in the test on SR leukemia; 34 µM with HL-60(TB) leukemia; greater than 100 µM with TK-10 renal; greater than 100 µM in the test with HCT-15 colon; greater than 100 µM with OVCAR-5 ovarian; greater than 100 µM in the test with SNB-19 CNS. Besides, the TGI with MDA-MB-231 breast was greater than 63.8 µM; in the test on RPMI-8226 leukemia it was greater than 76.1 µM; in the test on UO-31 renal, greater than 74.5 µM; with RXF 393 renal it was greater than 100 µM; in the test with SF-539 CNS, greater than 89.9 µM; in the test on COLO 205 colon, greater than 100 µM. Moreover, the TGI is greater than 100 µM with UACC-257 melanoma, 35 µM in the test on MCF7 breast, greater than 100 µM in the test with SK-OV-3 ovarian and greater than 100 µM with LOX IMVI melanoma.

`CC1(C)CCCC2CC2CCC(C)(C)C1=O` (centres undefined): the TGI is 45.6 µM with SR leukemia; 41.2 µM in the test with HL-60(TB) leukemia; greater than 100 µM in the test on TK-10 renal; greater than 100 µM with HCT-15 colon; greater than 100 µM with OVCAR-5 ovarian; greater than 100 µM in the test on SNB-19 CNS. Besides, the TGI in the test with MDA-MB-231 breast was greater than 100 µM; with RPMI-8226 leukemia, 68.1 µM; in the test on UO-31 renal, greater than 100 µM; with RXF 393 renal, 87.7 µM; with SF-539 CNS, greater than 100 µM; in the test on COLO 205 colon, 39 µM. The TGI in the test with UACC-257 melanoma was greater than 100 µM; in the test with MCF7 breast it was 75.8 µM; in the test with SK-OV-3 ovarian it was greater than 100 µM; in the test on LOX IMVI melanoma it was greater than 100 µM.

`C=C[C@]1(C)CC(=O)C(C(C)C=O)[C@]12C(=O)Oc1cccc(C)c1C2=O` (some centres undefined): the TGI in the test on SR leukemia was greater than 100 µM; in the test on HL-60(TB) leukemia it was 32.3 µM; with TK-10 renal, 28.2 µM; with HCT-15 colon, 28.3 µM; with OVCAR-5 ovarian, 30.6 µM; in the test on SNB-19 CNS, 24.6 µM. The TGI with MDA-MB-231 breast is 31.6 µM; with RPMI-8226 leukemia, greater than 100 µM; in the test on UO-31 renal it was 28.9 µM; with RXF 393 renal it was 27.6 µM; with SF-539 CNS, 31 µM; with COLO 205 colon, 31.2 µM. In addition, the TGI turned out to be 33.2 µM with UACC-257 melanoma, 32.7 µM in the test with MCF7 breast, 33.1 µM in the test with SK-OV-3 ovarian and 27.5 µM in the test with LOX IMVI melanoma.

For `CC1=NN(c2cccc(Cl)c2)C2(C1=Cc1cccs1)C(Cl)C(=O)N2c1nc2ccccc2s1` (centres undefined), the TGI in the test on SR leukemia was determined as 48.5 µM; with HL-60(TB) leukemia it was 61 µM; with TK-10 renal, 66.3 µM; in the test with HCT-15 colon it was 51.7 µM; with OVCAR-5 ovarian, 41.9 µM; in the test with MDA-MB-231 breast, 41.4 µM. Besides, the TGI amounted to 43.6 µM with RPMI-8226 leukemia; 69.6 µM in the test on UO-31 renal; 45.8 µM in the test with RXF 393 renal; 30.5 µM in the test with SF-539 CNS; 57.3 µM in the test with UACC-257 melanoma; 69.5 µM in the test on MCF7 breast. The TGI in the test with LOX IMVI melanoma worked out at 42.1 µM.

On to `Cc1nn(C(=O)c2ccc(Cl)cc2)c2c1C(c1ccccc1O)SC(N)=N2` (centres undefined), for which the TGI in the test on SR leukemia, in the test with HL-60(TB) leukemia, with TK-10 renal, in the test on HCT-15 colon, in the test with OVCAR-5 ovarian and with SNB-19 CNS was greater than 10 µM each time. The TGI with MDA-MB-231 breast, in the test on RPMI-8226 leukemia, in the test on RXF 393 renal, in the test with SF-539 CNS, in the test with COLO 205 colon and with UACC-257 melanoma was greater than 10 µM throughout. The TGI with MCF7 breast, in the test with SK-OV-3 ovarian and in the test on LOX IMVI melanoma was greater than 10 µM each time.

In the case of `N#Cc1sc2c(c1OC(=O)c1ccc(Cl)cc1)c(=O)n(-c1ccccc1)c(=S)n2-c1ccccc1`, the TGI in the test with SR leukemia came out at 75.9 µM; with HL-60(TB) leukemia, 46.6 µM; in the test on TK-10 renal, 88.7 µM; with HCT-15 colon it was 35.4 µM; in the test with OVCAR-5 ovarian it was 68.2 µM; in the test with SNB-19 CNS, 61.4 µM. The TGI in the test on MDA-MB-231 breast was 97 µM; with RPMI-8226 leukemia, 45.3 µM; in the test with RXF 393 renal, 50.7 µM; in the test with SF-539 CNS, 44 µM; in the test with COLO 205 colon, 38.1 µM; in the test with UACC-257 melanoma, greater than 100 µM. Besides, the TGI was determined as 84.2 µM in the test with MCF7 breast, 91.4 µM in the test on SK-OV-3 ovarian and 37.3 µM in the test on LOX IMVI melanoma.

Take `Cc1ccc(C(=O)O)c(/C=C2\Cc3cc(C)cc(C)c3C2=O)c1`: the TGI in the test on SR leukemia, in the test with HL-60(TB) leukemia, in the test with TK-10 renal, with HCT-15 colon, in the test on SNB-19 CNS and in the test with MDA-MB-231 breast was greater than 100 µM each time. Also, the TGI in the test on RPMI-8226 leukemia, in the test with UO-31 renal, in the test with RXF 393 renal, in the test with SF-539 CNS, in the test on UACC-257 melanoma and with MCF7 breast was greater than 100 µM throughout. In the test on LOX IMVI melanoma, this molecule displayed a TGI greater than 100 µM.
